The record followed here is patent US20110124607A1, “COMPOSITION FOR REGULATION CELLULAR SENESCENCE COMPRISING LYSOPHOSPHATIDIC ACID AND INHIBITOR OF ADENYLYL CYCLASE AS ACTIVE INGREDIENTS” (priority 2008, published 2011).

In test [1] the test system is young cells (human fibroblasts). Kind of test: Cell proliferation by counting live cells (trypan blue), young cells. It is filed as cell-based. To be noted: serum-starved 2 days, counted day 1, 2, 4, 30 μM LPA, 300 μM ACI, 10 mM AMPKI, 10 mM AICAR. As to the method:
(§1) Human fibroblasts were prepared by primary culture of foreskin of a newborn baby (Boyce and Ham, 1983). The primary culture was performed in DMEM supplemented with 10% FBS and 1% antibiotics. The protein contents of young cells from the early stage of sub-culture, with a population doubling (PD) of less than 25, were compared to those of at least PD 65-70 senescent cells. […] In senescent cells, the activity of beta-galactosidase was increased and cell proliferation was reduced (Yeo et al., 2000).
(§2) Prior to LPA and ACI treatment, cells were grown for 1-2 days to 60-70% sub-confluence in DMEM-containing culture medium, and then serum-starved to quiescence (that is Go/G1 arrest) by incubation in a serum-free medium containing 0.1% bovine serum albumin (BSA) for 2 days. Young and senescent cells were treated with LPA, ACI, LPA+ACI, AMPKI and AICAR, respectively. Live cells were measured after staining the cells with trypan blue on day 1, day 2 and day 4 to confirm cell proliferation.
(§3) Cell proliferation and cAMP level were increased by LPA in senescent cells (Yeo et al., 2002). The AC inhibitor (ACI) was added to reduce cAMP which had been increased by LPA. And then, cell proliferation was investigated. Cells were cultured in serum-free medium for 2 days to arrest them in G0/G1 phase. Then, the cells were treated with LPA, ACI or LPA+ACI. Total cell number was measured on day 1, day 2 and day 4, or the cells entered into S phase were counted to evaluate cell proliferation. When young cells were treated with 300 μM of ACI, cell proliferation was reduced, compared with control (FIG. 1A). In the meantime, when senescent cells were treated with 300 μM of ACI, cell proliferation was increased, compared with control (FIG. 1B).

Test [2] deals with senescent cells (human fibroblasts). The experiment in a line: Cell proliferation by counting live cells (trypan blue), senescent cells. It is filed as cell-based. Particulars: serum-starved 2 days, counted day 1, 2, 4, 30 μM LPA, 300 μM ACI, 10 mM AMPKI, 10 mM AICAR. Here is the method: as §1, §2, §3
In another test the test system is p-Thr172-AMPKα. The experiment in a line: Immuno-blotting of p-Thr172-AMPKα. In kind it is cell-based, human. Particulars: 30 μM LPA, 300 μM ACI, 10 mM AMPKI, 10 mM AICAR, up to day 4. Here is the method:
(§4) (A) and (B): Young and senescent cells were serum-starved for 2 days, followed by treatment with 10 mM of AMPK inhibitor […]) or 10 mM of AMPK activator AICAR(B) for 4 days. Proteins were extracted from the treated cells and the levels of AMPKα and p-Thr172-AMPKα, total p53, p-Ser15-p53 and […] measured by immuno-blotting. (C) and (D): Young cells (C) and senescent cells (D) were treated with 10 mM AMPKI or 10 mM AICAR and cultured for 4 days, followed by measurement of cell proliferation by cell counting. At this time, the experiment was repeated three times (p<0.001). (A) and (B) are photographs illustrating the results of immuno-blotting. Precisely, sub-cultured young cells (PD 18: A) and senescent cells (PD 64: B) were treated with 30 μM of LPA […] and ACI singly or together, followed by further culture for 1, 2, and 4 days. Proteins were extracted from the cultured cells and the levels of AMPKα, […] β-actin were quantified by immuno-blotting. (A) and (B) are photographs illustrating the results of immuno-blotting. Precisely, senescent cells (PD 64) were pre-treated with 10 mM of PKA inhibitor Rp-cAMP for one hour, followed by treatment with LPA(A) or ACI(B). After culturing the cells for 1, 2, and 4 days, proteins were extracted from the cultured cells and the levels of AMPKα, […] β-actin were quantified by immuno-blotting using 45 μg of the protein. To analyse protein expression, human fibroblasts were lysed in cold lysis buffer (25 mM Hepes, pH 8.0, 150 mM NaCl, 1 mM EDTA, 1 mM Na3VO4, 1 mM NaF, 1% Triton X-100 and protease inhibitors), followed by centrifugation at 4° C. at 9,000 rpm for 10 minutes to obtain supernatant. Protein in the extract was quantified […]. SDS-PAGE electrophoresis was performed with equal amount of the protein (45 μg) to separate. The separated protein was transferred onto NC membrane from the electrophoresis gel. Non-specific protein binding was blocked by blocking the blot (transferred NC membrane) using TTBS […] containing 5% skim milk for one hour. Then, antigen-antibody reaction was induced with diluted primary antibody at 4° C. for overnight. The blot was washed with TTBS, followed by reaction with horseradish peroxidase conjugated anti-IgGs diluted in TTBS containing 5% skim milk (1:5000) at room temperature for one hour. The blot was washed again with TTBS to eliminate non-specific binding of antigen-antibody. Photographs were developed/printed on X-ray film (Kodak) using ECL kit (Pierce) containing peroxidase substrate to identify each protein.

Another test deals with p-Ser15-p53. The experiment in a line: Immuno-blotting of p-Ser15-p53. Particulars: 10 mM AMPKI, 10 mM AICAR. It is filed as cell-based, human. Here is the method: as §4
In another test the test system is p21waf1/cip1. Kind of test: Immuno-blotting of p21waf1/cip1. It is filed as cell-based, human. Particulars: 10 mM AMPKI, 10 mM AICAR. Here is the method:
as §4

The mark [3] stands for this setting: senescent cells, 30 μM LPA, 300 μM ACI.

Regarding `NC(=O)c1ncn([C@@H]2O[C@H](CO)[C@@H](O)[C@H]2O)c1N` [AICAR], the “cell proliferation (cell number) compared with control” value in test [1] and in test [2] was “suppressed” in each case. In addition, the Thr172-AMPKα phosphorylation result in the test on p-Thr172-AMPKα (senescent cells) and with p-Thr172-AMPKα (young cells) was “increased” throughout. Besides, the p-Ser15-p53 expression result with p-Ser15-p53 (setting [3]) is “increased”; in the test on p-Ser15-p53 (young cells, 4 days), “increased”. Also, the “p21 expression (immuno-blotting)” value in the test with p21waf1/cip1 (setting [3]) is on record as “increased”; in the test on p21waf1/cip1 (young cells, 4 days), “increased”.
